In PubChem BioAssay (NCI):
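Cultured in 96-well plates, cells were exposed to test compound for 48 hours across five concentrations. TGI is the concentration that stops growth completely.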

Columns and labels:
Assay in all cases: DTP human tumour cell line panel, 48 h
[1] = test system: SR leukemia
[2] = test system: MCF7 breast
[3] = test system: SK-MEL-28 melanoma
[4] = test system: U251 CNS
[5] = test system: IGROV1 ovarian
[6] = test system: TK-10 renal
[7] = test system: MDA-N
[8] = test system: A549 NSCLC
[9] = test system: HS 578T breast
[10] = test system: MALME-3M melanoma
[11] = test system: T-47D breast
[12] = test system: EKVX NSCLC
[13] = test system: CCRF-CEM leukemia
[14] = test system: CAKI-1 renal
[15] = test system: NCI/ADR-RES ovarian
[16] = test system: MDA-MB-435
[17] = test system: HL-60(TB) leukemia
[18] = test system: HOP-62 NSCLC
[19] = test system: OVCAR-5 ovarian
[20] = test system: SNB-75 CNS

Compound	TGI [1] [µM]	TGI [2] [µM]	TGI [3] [µM]	TGI [4] [µM]	TGI [5] [µM]	TGI [6] [µM]	TGI [7] [µM]	TGI [8] [µM]	TGI [9] [µM]	TGI [10] [µM]	TGI [11] [µM]	TGI [12] [µM]	TGI [13] [µM]	TGI [14] [µM]	TGI [15] [µM]	TGI [16] [µM]	TGI [17] [µM]	TGI [18] [µM]	TGI [19] [µM]	TGI [20] [µM]
COc1cc(-c2cc(=O)c3c(OC)c(OC)c(OC)c(OC)c3o2)c(OC)c(OC)c1OC	> 100	> 100	> 100	> 100	> 100	> 100	> 100	> 100	> 100	> 100	51	> 100	> 100	> 100	66.8	> 100	> 100	> 100	> 100	> 100
COC(=O)C(C)(NC(=O)C(CC(=O)OC(C)(C)C)NC(=O)OC(C)(C)C)c1ccccc1 (stereo not given)	> 100	> 100	> 100	> 100	> 100	> 100	> 100	> 100	> 100	> 100	> 100	> 100	> 100	> 100	> 100	> 100	> 100	> 100	> 100	> 100
O=C(O)/C=N\Nc1nc2ccccc2[nH]1	> 100	> 100	> 100	> 100	> 100	> 100	> 100	> 100	> 100	> 100	> 100	> 100	> 100	> 100	> 100	> 100	> 100	> 100	> 100	> 100
COc1ccc(C(C)NNC(=O)c2ccncc2)c(OC)c1 (stereo not given)	> 100	> 100	> 100	> 100	> 100	> 100	> 100	> 100	> 100	> 100	> 100	> 100	> 100	> 100	> 100	> 100	> 100	> 100	> 100	> 100
Cc1ccc(S(=O)(=O)N/N=C/C(=C/c2ccc(Cl)cc2)CC(/C=N/NS(=O)(=O)c2ccc(C)cc2)=C\c2ccc(Cl)cc2)cc1	24.5	12.6	20.2	17.2	35.7	45.6	26.7	> 100	21.5	22	19.2	38.4	8.8	68.4	94.3	14.2	8.15	70.8	35.5	60.1
COc1ccc(C(=O)Sc2c(-c3ccccc3)c(=O)n(-c3ccccc3)c(=S)n2-c2ccccc2)cc1	> 100	> 100	> 100	> 100	26.4	> 100	> 100	> 100	> 100	> 100	> 100	> 100	> 100	> 100	> 100	> 100	> 100	> 100	> 100	> 100
CC(C)(C)c1cc(C(P(=O)(c2ccccc2)c2ccccc2)P(=O)(c2ccccc2)c2ccccc2)cc(C(C)(C)C)c1O	> 8.37	> 8.8	4.71	6.68	5.74	9.87	3.93	> 8.98	6.27	6.38	> 10	> 10	7.88	9.9	6.16	4.39	> 8.2	5.13	> 6.72	7.39
CN(C)Cc1cc(C(=O)/C=C/c2ccc(Cl)cc2)cc(CN(C)C)c1O	45.7	39.6	26.4	28	29	39	25.3	28.7	49.3	24.8	> 100	38.8	94.2	20	54.2	26.5	22.9	15.8	54.5	44.4
C=C(C)C(CC=C(C)C)CC12CC(CC=C(C)C)C(C)(C)C(CC=C(C)C)(C(=O)C(Cc3ccc(O)c(O)c3)=C1O)C2=O (stereo not given)	> 100	> 100	> 100	> 100	> 100	> 100	> 100	> 100	> 100	> 100	> 100	> 100	> 100	> 100	> 100	> 100	> 100	> 100	> 100	> 100
CC1=C(C#N)C(C#N)(C#N)C(NN(C)C)C1 (stereo not given)	> 100	77.3	> 100	> 100	40.9	34	21.9	> 100	> 100	98.2	27.8	86.3	> 100	7	> 100	75	> 100	30.4	47.4	40.3
COc1ccc(CC2c3cc(Oc4cc(CC5c6cc(OC)c(OC)cc6CCN5C)ccc4O)c(OC)cc3CCN2C)cc1 (stereo not given)	4.6	12.2	15.1	11.9	16.2	11	13.7	13.4	19.3	17.6	12.8	15.9	1.57	9.99	14.4	9.88	15.5	14.9	16.6	15.3
C=CCNC1=C2C[C@@H](C)C[C@@H](OC)[C@H](OC(=O)CCCCN)[C@H](C)/C=C(\C)[C@@H](OC(N)=O)[C@H](OC)/C=C\C=C(/C)C(=O)NC(=CC1=O)C2=O	> 100	12.4	36.9	22.8	28.6	29	22	25.2	58.4	19.6	29.9	26.9	56.4	33.2	> 100	25.6	30.3	18.5	34	15.2
COc1cc(C2c3cc4c(cc3OC(N3CCCC3)C2C)OCO4)cc(OC)c1O (stereo not given)	> 100	> 100	> 100	42.6	> 100	58.6	6.17	> 100	37.4	> 66	> 100	> 80.7	> 100	> 95.1	37	15.2	> 92.7	56.7	> 100	24.5
C=C1CC(c2ccc(OCCCN3C(=O)c4ccccc4C3=O)c(OC)c2)OC1=O (stereo not given)	2.72	0.48	9.34	23.5	8.41	10.8	16.4	27	32.4	12.4	9.96	30.6	3.79	5.16	> 100	11.7	2.8	30.6	31.9	8.06
C[C@]12CC[C@H](O)CC1=CC[C@@H]1[C@@H]2CC[C@]2(C)C(=O)[C@@H](N3CCOCC3)C[C@@H]12	> 100	> 100	> 100	> 100	> 100	> 100	> 100	> 100	> 100	> 100	> 100	> 100	> 100	> 100	> 100	> 100	> 100	> 100	> 100	99.2
CCOC(=O)C1(Cc2ccc3c(c2)CCC3)Cc2cc3c(cc2C1)CCC3	> 100	40.4	> 100	> 100	> 100	> 100	> 100	> 100	> 100	> 100	50.7	> 100	35	> 100	> 100	> 100	> 100	> 100	> 100	> 100
CC(=O)NC1C(OCc2ccccc2)OC(CO)C(O)C1OC(C)C(=O)NC(C)C(=O)NC(CCC(=O)NCCCNc1c2ccccc2nc2cccc([N+](=O)[O-])c12)C(N)=O (stereo not given)	> 100	> 100	8.04	12.8	72.9	9.97	2.77	11.6	40.4	7.61	> 100	22.6	> 100	7.87	65.7	2.65	> 100	8.78	8.02	9.92
